Data as given in patent US10077261B2, “Imidazolin-5-one derivative useful as FASN inhibitors for the treatment of cancer” (Janssen Pharmaceutica NV, priority 2012, dated 2018).

Key:
[1] = target: T1, hFASN enzyme (full length) (Homo sapiens, UniProt P49327); experiment: Fatty Acid Synthase (FASN) inhibition scintillation proximity assay; type: biochemical; details: for inhibition at 10 µM: read-out: Human FASN % inhibition @ 10 μM, 10 μM test compound; for IC50: read-out: Human FASN pIC50 (converted)
T1 construct: 10 μL hFASN enzyme (full length, 300 ng, purified in house); made in house
Procedure, shortened: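 Purified full-length hFASN (300 ng) converts ^3H-acetyl-CoA plus malonyl-CoA to ^3H-palmitate in 100 mM KH2PO4 pH 7.5, 1 mM DTT; compounds tested at 0.01–30 μM. Product captured on streptavidin imaging beads and read by LEADseeker at 610 nm after ≥24 h; 4-parameter logistic fit versus controls.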

A2780 ovarian cells [2] = experiment: A2780 ovarian cell proliferation assay in lipid reduced medium, with palmitate (MTT); type: cell-based; details: Homo sapiens, A2780, 96 h; read-out: pIC50 A2780 Ovarian Cell, With Palmitate (converted)
Procedure, shortened: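 Seeded cells were switched next day to lipid-reduced serum, exposed to compound and 25 μM palmitate complexed with fatty-acid-free BSA, and incubated 96 h. Proliferation was then determined by MTT absorbance at 544 nm, with a best-fit curve of signal against concentration.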

A2780 ovarian cells [3] = experiment: A2780 ovarian cell proliferation assay in lipid reduced medium, without palmitate (MTT); type: cell-based; details: Homo sapiens, A2780, 96 h; read-out: pIC50 A2780 Ovarian Cell, Without Palmitate (converted)

T1 sequence (P49327 whole entry): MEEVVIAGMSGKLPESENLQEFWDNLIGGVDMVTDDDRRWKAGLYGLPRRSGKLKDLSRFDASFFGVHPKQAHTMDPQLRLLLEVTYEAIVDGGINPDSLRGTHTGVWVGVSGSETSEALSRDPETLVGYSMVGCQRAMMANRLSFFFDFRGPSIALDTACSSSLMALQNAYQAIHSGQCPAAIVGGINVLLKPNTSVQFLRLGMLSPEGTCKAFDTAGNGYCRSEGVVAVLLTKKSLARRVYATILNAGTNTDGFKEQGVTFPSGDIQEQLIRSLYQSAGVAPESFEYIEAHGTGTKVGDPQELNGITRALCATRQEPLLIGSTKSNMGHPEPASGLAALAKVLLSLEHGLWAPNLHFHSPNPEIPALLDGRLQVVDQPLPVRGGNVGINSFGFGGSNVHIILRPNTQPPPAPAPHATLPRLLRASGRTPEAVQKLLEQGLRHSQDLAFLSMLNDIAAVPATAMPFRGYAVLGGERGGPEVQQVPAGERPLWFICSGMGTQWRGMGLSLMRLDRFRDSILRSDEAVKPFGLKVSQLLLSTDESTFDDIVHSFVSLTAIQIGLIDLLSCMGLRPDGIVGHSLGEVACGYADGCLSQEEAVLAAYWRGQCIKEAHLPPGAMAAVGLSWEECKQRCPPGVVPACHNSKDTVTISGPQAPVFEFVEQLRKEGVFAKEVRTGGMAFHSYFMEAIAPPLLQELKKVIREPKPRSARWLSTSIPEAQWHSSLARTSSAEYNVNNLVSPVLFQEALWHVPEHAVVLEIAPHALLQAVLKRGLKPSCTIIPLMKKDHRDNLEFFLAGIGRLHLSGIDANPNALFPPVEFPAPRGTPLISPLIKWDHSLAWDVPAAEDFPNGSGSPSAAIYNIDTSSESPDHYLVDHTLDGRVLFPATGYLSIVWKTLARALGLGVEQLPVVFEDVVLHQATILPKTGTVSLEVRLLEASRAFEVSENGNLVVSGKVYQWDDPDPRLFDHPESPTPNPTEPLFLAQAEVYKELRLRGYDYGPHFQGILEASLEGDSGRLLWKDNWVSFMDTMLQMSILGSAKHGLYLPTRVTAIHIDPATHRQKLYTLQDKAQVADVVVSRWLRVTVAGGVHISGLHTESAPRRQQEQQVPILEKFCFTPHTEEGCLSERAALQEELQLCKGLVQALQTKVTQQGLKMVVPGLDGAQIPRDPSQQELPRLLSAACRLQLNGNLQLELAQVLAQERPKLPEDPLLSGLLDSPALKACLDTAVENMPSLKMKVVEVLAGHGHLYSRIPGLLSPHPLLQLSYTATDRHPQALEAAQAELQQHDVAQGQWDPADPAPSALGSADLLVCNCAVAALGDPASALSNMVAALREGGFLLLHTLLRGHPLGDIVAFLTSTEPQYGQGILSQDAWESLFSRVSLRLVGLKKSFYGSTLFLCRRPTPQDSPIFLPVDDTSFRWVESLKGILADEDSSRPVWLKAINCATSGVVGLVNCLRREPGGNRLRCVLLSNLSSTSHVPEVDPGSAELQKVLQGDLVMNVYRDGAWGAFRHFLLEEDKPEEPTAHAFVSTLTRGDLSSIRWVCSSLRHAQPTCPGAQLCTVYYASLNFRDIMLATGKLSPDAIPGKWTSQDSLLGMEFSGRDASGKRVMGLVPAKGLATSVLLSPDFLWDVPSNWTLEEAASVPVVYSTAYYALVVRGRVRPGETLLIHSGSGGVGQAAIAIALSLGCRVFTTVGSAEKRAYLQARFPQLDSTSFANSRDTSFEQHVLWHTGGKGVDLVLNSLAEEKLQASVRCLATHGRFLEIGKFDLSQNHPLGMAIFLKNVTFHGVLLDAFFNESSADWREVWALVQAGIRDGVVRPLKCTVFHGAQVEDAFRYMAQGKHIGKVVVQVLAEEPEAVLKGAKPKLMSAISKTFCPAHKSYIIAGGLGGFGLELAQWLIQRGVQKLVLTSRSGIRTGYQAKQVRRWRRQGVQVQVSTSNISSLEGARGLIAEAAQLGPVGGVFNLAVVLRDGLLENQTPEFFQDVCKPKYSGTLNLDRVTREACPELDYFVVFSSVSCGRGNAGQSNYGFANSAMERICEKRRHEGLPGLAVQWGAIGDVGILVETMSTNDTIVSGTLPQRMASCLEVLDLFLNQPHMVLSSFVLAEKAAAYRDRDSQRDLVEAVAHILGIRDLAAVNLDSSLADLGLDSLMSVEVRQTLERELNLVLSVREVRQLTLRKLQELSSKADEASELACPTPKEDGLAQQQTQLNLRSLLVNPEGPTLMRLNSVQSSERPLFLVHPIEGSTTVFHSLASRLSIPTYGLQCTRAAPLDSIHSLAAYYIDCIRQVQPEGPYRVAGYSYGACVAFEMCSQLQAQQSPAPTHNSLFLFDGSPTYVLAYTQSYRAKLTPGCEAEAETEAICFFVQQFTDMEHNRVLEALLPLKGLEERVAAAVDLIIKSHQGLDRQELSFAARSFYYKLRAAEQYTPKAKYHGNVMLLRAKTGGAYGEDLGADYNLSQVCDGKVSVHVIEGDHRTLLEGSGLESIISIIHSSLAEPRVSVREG

SMILES: O=C(C1CC1)N1CCC2(CC1)N=C(c1ccc(-c3ccc4occc4c3)cc1)N(CC1CN(C(=O)C3CC3)C1)C2=O [compound 134, 2-[4-(1-Benzofuran-5-yl)phenyl]-8-(cyclopropylcarbonyl)-3-{[1-(cyclopropylcarbonyl)azetidin-3-yl]methyl}-1,3,8-triazaspiro[4.5]dec-1-en-4-one]
- inhibition at 10 µM [1]: 91.7%
- IC50 [1]: 0.562 µM
- IC50 (A2780 ovarian cells [2]): > 10 µM
- IC50 (A2780 ovarian cells [3]): 4.47 µM

SMILES: Cc1cc(-c2ccc3c(cnn3C)c2)ccc1C1=NC2(CC2)C(=O)N1CC1CN(C(=O)C2(N)CC2)C1 [compound 564, 6-({1-[(1-Aminocyclopropyl)carbonyl]azetidin-3-yl}methyl)-5-[2-methyl-4-(1-methyl-1H-indazol-5-yl)phenyl]-4,6-diazaspiro[2.4]hept-4-en-7-one]
- inhibition at 10 µM [1]: 97%
- IC50 [1]: 0.263 µM
- IC50 (A2780 ovarian cells [2]): > 10 µM
- IC50 (A2780 ovarian cells [3]): 0.525 µM

SMILES: Cc1cc(-c2cccc(S(=O)(=O)C3CC3)c2)ccc1C1=NC2(CC2)C(=O)N1CC1CN(C(=O)C2CC2)C1 [compound 640, 6-{[1-(Cyclopropylcarbonyl)azetidin-3-yl]methyl}-5-[3′-(cyclopropylsulfonyl)-3-methylbiphenyl-4-yl]-4,6-diazaspiro[2.4]hept-4-en-7-one]
- inhibition at 10 µM [1]: 64%
- IC50 [1]: 5.37 µM
- IC50 (A2780 ovarian cells [2]): > 10 µM
- IC50 (A2780 ovarian cells [3]): 8.32 µM

SMILES: O=C(N1CCC(CN2C(=O)C3(CCOC3)N=C2c2ccc(-c3ccc4occc4c3)cc2)C1)C(F)(F)F (stereo not shown) [compound 938, 2-(4-(benzofuran-5-yl)phenyl)-3-((1-(2,2,2-trifluoroacetyl)pyrrolidin-3-yl)methyl)-7-oxa-1,3-diazaspiro[4.4]non-1-en-4-one]
- inhibition at 10 µM [1]: 43%
- IC50 [1]: > 10 µM
- IC50 (A2780 ovarian cells [2]): > 10 µM
- IC50 (A2780 ovarian cells [3]): 7.94 µM

SMILES: Cc1cc(-c2cccc(SC3CC3)c2)ccc1C1=NC2(CC2)C(=O)N1CC1CN(C(=O)C2CC2)C1 [compound 650, 6-{[1-(Cyclopropylcarbonyl)azetidin-3-yl]methyl}-5-[3′-(cyclopropylsulfanyl)-3-methylbiphenyl-4-yl]-4,6-diazaspiro[2.4]hept-4-en-7-one]
- inhibition at 10 µM [1]: 84%
- IC50 [1]: 1.35 µM
- IC50 (A2780 ovarian cells [2]): > 10 µM
- IC50 (A2780 ovarian cells [3]): 4.9 µM

SMILES: Cn1c(-c2ccc(C3=NC4(CC4)C(=O)N3CC3CN(C(=O)C4CC4)C3)c(F)c2)nc2ccc(F)cc21 [compound 653, 6-{[1-(Cyclopropylcarbonyl)azetidin-3-yl]methyl}-5-[2-fluoro-4-(6-fluoro-1-methyl-1H-benzimidazol-2-yl)phenyl]-4,6-diazaspiro[2.4]hept-4-en-7-one]
- inhibition at 10 µM [1]: 71%
- IC50 [1]: 3.02 µM
- IC50 (A2780 ovarian cells [2]): > 10 µM
- IC50 (A2780 ovarian cells [3]): 4.17 µM

SMILES: O=C(C1CC1)N1CC[C@@H](CN2C(=O)C3(CCNCC3)N=C2c2ccc(-c3ccc4occc4c3)cc2)C1 [compound 133, 2-[4-(1-Benzofuran-5-yl)phenyl]-3-{[(3R)-1-(cyclopropylcarbonyl)pyrrolidin-3-yl]methyl}-1,3,8-triazaspiro[4.5]dec-1-en-4-one]
- inhibition at 10 µM [1]: 99.1%
- IC50 [1]: 0.447 µM
- IC50 (A2780 ovarian cells [2]): > 10 µM
- IC50 (A2780 ovarian cells [3]): ~3.16 µM

SMILES: COCc1c2cc(-c3ccc(C4=NC5(CC5)C(=O)N4CC4CN(C(=O)C5CC5)C4)c(C)c3)ccc2nn1C [compound 589, 6-{[1-(Cyclopropylcarbonyl)azetidin-3-yl]methyl}-5-{4-[3-(methoxymethyl)-2-methyl-2H-indazol-5-yl]-2-methylphenyl}-4,6-diazaspiro[2.4]hept-4-en-7-one]
- inhibition at 10 µM [1]: 52%
- IC50 [1]: 9.55 µM
- IC50 (A2780 ovarian cells [2]): > 10 µM
- IC50 (A2780 ovarian cells [3]): 5.62 µM

SMILES: O=C(C1CC1)N1CC(CN2C(=O)C3(CC3)N=C2c2ccc(-c3ccc4c(cnn4C4CC4)c3)cc2F)C1 [compound 522, 6-{[1-(Cyclopropylcarbonyl)azetidin-3-yl]methyl}-5-[4-(1-cyclopropyl-1-indazol-5-yl)-2-fluorophenyl]-4,6-diazaspiro[2.4]hept-4-en-7-one]
- inhibition at 10 µM [1]: 79%
- IC50 [1]: 1.66 µM
- IC50 (A2780 ovarian cells [2]): > 10 µM
- IC50 (A2780 ovarian cells [3]): 2.88 µM

SMILES: COC(=O)N1CC[C@@H](CN2C(=O)C3(CCOCC3)N=C2c2ccc(-c3ccc4cccnc4c3)cc2)C1 [compound 664, Methyl (3S)-3-{[4-oxo-2-(4-quinolin-7-ylphenyl)-8-oxa-1,3-diazaspiro[4.5]dec-1-en-3-yl]methyl}pyrrolidine-1-carboxylate]
- inhibition at 10 µM [1]: 87%
- IC50 [1]: 3.72 µM
- IC50 (A2780 ovarian cells [2]): > 10 µM
- IC50 (A2780 ovarian cells [3]): ~2.88 µM

SMILES: CC1(C(=O)N2CC[C@@H](CN3C(=O)C4(CC4)N=C3c3ccc(-c4ccc5cc(F)ccc5c4)cc3F)C2)CC1 [compound 363, (R)-5-(2-fluoro-4-(6-fluoronaphthalen-2-yl)phenyl)-6-((1-(1-methylcyclopropancecarbonyl)pyrrolidin-3-yl)methyl)-4,6-diazaspiro[2.4]hept-4-en-7-one]
- inhibition at 10 µM [1]: 94%
- IC50 [1]: 0.0398 µM
- IC50 (A2780 ovarian cells [2]): ~1.51 µM
- IC50 (A2780 ovarian cells [3]): ~0.00646 µM

SMILES: COC(=O)N1CC2(C1)N=C(c1ccc(-c3ccc(-c4cnn(C)c4)cc3)cc1)N(C[C@@H]1CCN(S(C)(=O)=O)C1)C2=O [compound 891, (S)-methyl 6-(4′-(1-methyl-1H-pyrazol-4-yl)-[1,1′-biphenyl]-4-yl)-7-((1-(methylsulfonyl)pyrrolidin-3-yl)methyl)-8-oxo-2,5,7-triazaspiro]3.4[ovt-5-ene-2-carboxylate]
- inhibition at 10 µM [1]: 8%
- IC50 [1]: > 10 µM
- IC50 (A2780 ovarian cells [2]): > 10 µM
- IC50 (A2780 ovarian cells [3]): > 10 µM

SMILES: N#CCCn1ncc2cc(-c3ccc(C4=NC5(CC5)C(=O)N4CC4CN(C(=O)C5CC5)C4)cc3)ccc21 [compound 533, 3-{5-[4-(6-{[1-(Cyclopropylcarbonyl)azetidin-3-yl]methyl}-7-oxo-4,6-diazaspiro[2.4]hept-4-en-5-yl)phenyl]-1H-indazol-1-yl}propanenitrile]
- inhibition at 10 µM [1]: 54%
- IC50 [1]: 7.59 µM
- IC50 (A2780 ovarian cells [2]): > 10 µM
- IC50 (A2780 ovarian cells [3]): > 10 µM

SMILES: Cc1cc2ccc(-c3ccc(C4=NC5(CC5)C(=O)N4CC4CN(C(=O)C5CC5)C4)cc3)cc2nc1Cl [compound 555, 5-[4-(2-Chloro-3-methylquinolin-7-yl)phenyl]-6-{[1-(cyclopropylcarbonyl)azetidin-3-yl]methyl}-4,6-diazaspiro[2.4]hept-4-en-7-one]
- inhibition at 10 µM [1]: 75%
- IC50 [1]: 1.86 µM
- IC50 (A2780 ovarian cells [2]): > 10 µM
- IC50 (A2780 ovarian cells [3]): ~5.13 µM

SMILES: O=C(C1CC1)N1CC(CN2C(=O)C3(CC3)N=C2c2ccc(-c3cc(Cl)c4cn[nH]c4c3)cc2F)C1 [compound 592, 5-[4-(4-Chloro-1H-indazol-6-yl)-2-fluorophenyl]-6-{[1-(cyclopropylcarbonyl)azetidin-3-yl]methyl}-4,6-diazaspiro[2.4]hept-4-en-7-one]
- inhibition at 10 µM [1]: 70%
- IC50 [1]: 2.95 µM
- IC50 (A2780 ovarian cells [2]): > 10 µM
- IC50 (A2780 ovarian cells [3]): 5.25 µM

SMILES: Cn1ncc2cc(-c3ccc(C4=NC5(CC5)C(=O)N4CC4CN(C(=O)C5CC5)C4)cc3Cl)ccc21 [compound 612, 5-[3-Chloro-4-(1-methyl-1H-indazol-5-yl)phenyl]-6-{[1-(cyclopropylcarbonyl)azetidin-3-yl]methyk}-4,6-diazaspiro[2.4]hept-4-en-7-one]
- inhibition at 10 µM [1]: 74%
- IC50 [1]: 2.04 µM
- IC50 (A2780 ovarian cells [2]): > 10 µM
- IC50 (A2780 ovarian cells [3]): 3.8 µM
